Assay results taken from article PMC9959244, “Revisiting the Solubility–Permeability Relationship with Hydrophobic Drug Umifenovir in Pluronic Solutions: Impact of pH and Co-Solvent” (Pharmaceutics, 2023).
Values after ≈ are worked out from the molar mass of the structure shown. Like-named read-outs stand apart in the source and are kept apart here.

How the values were obtained:
[1] = Phase solubility, shake-flask method with UV spectrophotometry; format: physicochemical; conditions: for solubility at 3 days: aqueous buffer (shake-flask)
Experimental: The solubility of UMF was measured in pure buffers pH 2.0 and pH 7.4, with the additions of 1.5 w/v%, 4.0 w/v%, 5.5 w/v%, 7.0 w/v% of F-127, and in all these solutions in the presence of 10% and 20% ethanol at 310.15 ± 0.1 K by the standard shake-flask method. The concentrations of F-127 were chosen purposely to avoid the formation of a gel (at approximately 20% w/w in water at 310.15 K). Since the aim of the study was to evaluate the possibility of preparation of pharmaceutical products based on UMF, the experimental temperature was selected to be as very close to the normal temperature of a healthy human. […] The experimental results are presented as an average of at least three replicated experiments.

[2] = PXRD analysis of solid residuals after solubility experiments; format: physicochemical
Experimental: The powder XRD data were recorded under ambient conditions on a D2 Phaser (Bragg Brentano) diffractometer (Bruker AXS, Karlsruhe, Germany) with a copper X-ray source (λCuKα1 = 1.5406Å) and a high-resolution position-sensitive LYNXEYE XE-T detector. The samples were placed into the plate sample holders and rotated at a speed of 15 rpm during the data acquisition.
In order to trace possible transformations of the UMF base, the solid residuals left after each solubility experiment were isolated, dried under air and subjected to PXRD analysis together with the raw UMF base and UMF∙HCl∙H2O. […] Importantly, all the parameters obtained for the acidic solutions (solubility, permeability, micellization, and aggregation characteristics) refer to UMF∙HCl∙H2O, in spite of the fact that initially the UMF base was subjected to the experiments.

[3] = set-up: method as in earlier work; conditions: cited from earlier work
[4] = Quantitative parameters of UMF solubilization by F-127 micelles (from phase solubility plots); format: physicochemical
Excerpt: To elucidate the solubilizing potential of the micelles of F-127 towards UMF, we determined the solubilizing capacity (χ) equal the amount of UMF solubilized by one mole of F-127 using the equation given in Stephenson et al.:(2) χ=(S2−S20)/(Cpolym−cmc)=(SUMF−SUMF0)/(CF−127−cmc) where S2 and S20 are the total compound solubility at a specific polymer concentration in the solution and the intrinsic solubility, respectively, Cpolym is the polymer (F-127) concentration, cmc is the polymer critical micelle concentration, expressed in mol∙L^−1, and (Cpolym—cmc) is the concentration of the micelles. […] Solubilizing capacities were determined from the slopes of the dependences illustrated in Figure S2. […]
Micelle formation occurs above the critical micelle concentration and is accompanied by the removal of the hydrophobic tails of F-127 molecules from the aqueous surroundings, the association of monomers and the decrease of the free energy of the entire system. […] In order to quantify the apparent free energy of solubilization (transferring of the compound from the aqueous to the micellar phase) at 310.15 K, the following equation was applied:(4) ΔGS310.15K=−RT⋅lnKm/w where ΔGS310.15K is the apparent solubilization free energy, R is the universal gas constant, and Km/w is the micelle/water partition coefficient of UMF. […]

Solubility increase by ethanol vs buffer pH 7.4 ([1]; 10% EtOH): 1.13 fold
Solubility increase by ethanol vs buffer pH 7.4 ([1]; 20% EtOH): 1.8 fold
Greater solubility in acidic medium (pH 2.0) as compared to alkaline one (pH 7.4) ([1]; 310.15 K): 44.4 fold
solubility at 3 days ([1]; 37 °C, pH 2, aqueous buffer, thermodynamic from solid, Solubility SUMF·103, buffer pH 2.0, 0 w/v% F-127, 310.15 K, value is S×10^3, heading: Solubility SUMF·103): 710 ± 20 µM (≈ 339 µg/mL)
solubility at 3 days ([1]; 37 °C, pH 2, aqueous buffer, thermodynamic from solid, pH 2.0, 310.15 K, read-out: Solubility in pure buffer): 711 µM (≈ 339 µg/mL)
solubility at 3 days ([1]; 37 °C, pH 2, aqueous with cosolvent or surfactant or cyclodextrin, thermodynamic from solid, Solubility SUMF·103, buffer pH 2.0, 1.5 w/v% F-127, 310.15 K, value is S×10^3, heading: Solubility SUMF·103): 2050 ± 40 µM (≈ 979 µg/mL)
solubility at 3 days ([1]; 37 °C, pH 2, aqueous with cosolvent or surfactant or cyclodextrin, thermodynamic from solid, Solubility SUMF·103, buffer pH 2.0, 4.0 w/v% F-127, 310.15 K, value is S×10^3, heading: Solubility SUMF·103): 3990 ± 80 µM (≈ 1900 µg/mL)
solubility at 3 days ([1]; 37 °C, pH 2, aqueous with cosolvent or surfactant or cyclodextrin, thermodynamic from solid, Solubility SUMF·103, buffer pH 2.0, 5.5 w/v% F-127, 310.15 K, value is S×10^3, heading: Solubility SUMF·103): 5610 ± 40 µM (≈ 2680 µg/mL)
solubility at 3 days ([1]; 37 °C, pH 2, aqueous with cosolvent or surfactant or cyclodextrin, thermodynamic from solid, Solubility SUMF·103, buffer pH 2.0, 7.0 w/v% F-127, 310.15 K, value is S×10^3, heading: Solubility SUMF·103): 6340 ± 30 µM (≈ 3030 µg/mL)
solubility at 3 days ([1]; 37 °C, pH 7.4, aqueous buffer, thermodynamic from solid, buffer pH 7.4, 0 w/v% F-127, 310.15 K, value is S×10^4, read-out: Solubility SUMF·104): 16 ± 0.1 µM (≈ 7.64 µg/mL)
solubility at 3 days ([1]; 37 °C, pH 7.4, aqueous with cosolvent or surfactant or cyclodextrin, thermodynamic from solid, 7.0% F-127 + 20% EtOH, buffer pH 7.4, 310.15 K, read-out: Maximum solubility value): 1180 µM
solubility at 3 days ([1]; 37 °C, pH 7.4, aqueous with cosolvent or surfactant or cyclodextrin, thermodynamic from solid, buffer pH 7.4 +10% EtOH, 0 w/v% F-127, 310.15 K, value is S×10^4, read-out: Solubility SUMF·104): 18 ± 0.1 µM (≈ 8.59 µg/mL)
solubility at 3 days ([1]; 37 °C, pH 7.4, aqueous with cosolvent or surfactant or cyclodextrin, thermodynamic from solid, buffer pH 7.4 +10% EtOH, 1.5 w/v% F-127, 310.15 K, value is S×10^4, read-out: Solubility SUMF·104): 194 ± 1 µM (≈ 92.6 µg/mL)
solubility at 3 days ([1]; 37 °C, pH 7.4, aqueous with cosolvent or surfactant or cyclodextrin, thermodynamic from solid, buffer pH 7.4 +10% EtOH, 4.0 w/v% F-127, 310.15 K, value is S×10^4, read-out: Solubility SUMF·104): 477 ± 3 µM (≈ 228 µg/mL)
solubility at 3 days ([1]; 37 °C, pH 7.4, aqueous with cosolvent or surfactant or cyclodextrin, thermodynamic from solid, buffer pH 7.4 +10% EtOH, 5.5 w/v% F-127, 310.15 K, value is S×10^4, read-out: Solubility SUMF·104): 689 ± 7 µM (≈ 329 µg/mL)
solubility at 3 days ([1]; 37 °C, pH 7.4, aqueous with cosolvent or surfactant or cyclodextrin, thermodynamic from solid, buffer pH 7.4 +10% EtOH, 7.0 w/v% F-127, 310.15 K, value is S×10^4, read-out: Solubility SUMF·104): 806 ± 7 µM (≈ 385 µg/mL)
solubility at 3 days ([1]; 37 °C, pH 7.4, aqueous with cosolvent or surfactant or cyclodextrin, thermodynamic from solid, buffer pH 7.4 +20% EtOH, 0 w/v% F-127, 310.15 K, value is S×10^4, read-out: Solubility SUMF·104): 30 ± 1 µM (≈ 14.3 µg/mL)
solubility at 3 days ([1]; 37 °C, pH 7.4, aqueous with cosolvent or surfactant or cyclodextrin, thermodynamic from solid, buffer pH 7.4 +20% EtOH, 1.5 w/v% F-127, 310.15 K, value is S×10^4, read-out: Solubility SUMF·104): 276 ± 3 µM (≈ 132 µg/mL)
solubility at 3 days ([1]; 37 °C, pH 7.4, aqueous with cosolvent or surfactant or cyclodextrin, thermodynamic from solid, buffer pH 7.4 +20% EtOH, 4.0 w/v% F-127, 310.15 K, value is S×10^4, read-out: Solubility SUMF·104): 700 ± 5 µM (≈ 334 µg/mL)
solubility at 3 days ([1]; 37 °C, pH 7.4, aqueous with cosolvent or surfactant or cyclodextrin, thermodynamic from solid, buffer pH 7.4 +20% EtOH, 5.5 w/v% F-127, 310.15 K, value is S×10^4, read-out: Solubility SUMF·104): 983 ± 11 µM (≈ 469 µg/mL)
solubility at 3 days ([1]; 37 °C, pH 7.4, aqueous with cosolvent or surfactant or cyclodextrin, thermodynamic from solid, buffer pH 7.4, 1.5 w/v% F-127, 310.15 K, value is S×10^4, read-out: Solubility SUMF·104): 174 ± 3 µM (≈ 83.1 µg/mL)
solubility at 3 days ([1]; 37 °C, pH 7.4, aqueous with cosolvent or surfactant or cyclodextrin, thermodynamic from solid, buffer pH 7.4, 4.0 w/v% F-127, 310.15 K, value is S×10^4, read-out: Solubility SUMF·104): 393 ± 3 µM (≈ 188 µg/mL)
solubility at 3 days ([1]; 37 °C, pH 7.4, aqueous with cosolvent or surfactant or cyclodextrin, thermodynamic from solid, buffer pH 7.4, 5.5 w/v% F-127, 310.15 K, value is S×10^4, read-out: Solubility SUMF·104): 586 ± 2 µM (≈ 280 µg/mL)
solubility at 3 days ([1]; 37 °C, pH 7.4, aqueous with cosolvent or surfactant or cyclodextrin, thermodynamic from solid, buffer pH 7.4, 7.0 w/v% F-127, 310.15 K, value is S×10^4, read-out: Solubility SUMF·104): 696 ± 4 µM (≈ 332 µg/mL)
solubility at 3 days ([1]; pH 7.4, pH 7.4, 310.15 K, read-out: Solubility in pure buffer): 15.8 µM (≈ 7.54 µg/mL)
Solubility enhancement by 7.0% F-127 ([1]; buffer pH 2.0, vs without F-127): 8.9 fold
Solubility enhancement by 7.0% F-127 ([1]; buffer pH 7.4 + 10% EtOH, vs without F-127): 44.8 fold
Solubility enhancement by 7.0% F-127 ([1]; buffer pH 7.4 + 20% EtOH, vs without F-127): 39.3 fold
Solubility enhancement by 7.0% F-127 ([1]; buffer pH 7.4, vs without F-127): 43.5 fold
Solid phase after dissolution (PXRD) ([2]; all the systems with buffer pH 7.4): No transformations
Higher solubilizing potential of F-127 (Km/w) towards UMF base at pH 7.4 vs UMF∙HCl∙H2O at pH 2.0 [4]: approximately 5.4 fold
logKm/w ([4]; UMF-buffer pH 7.4-pluronic F-127 system): 3.88
SMILES: CCOC(=O)c1c(CSc2ccccc2)n(C)c2cc(Br)c(O)c(CN(C)C)c12 [UMF, 6-bromo-4-dimethylaminomethyl-5-hydroxy-1-methyl-2-phenylthiomethyl indole-3-carboxylic acid ethyl ester]
Solid phase after dissolution (PXRD) ([2]; acidic buffer (pH 2.0)): transformed into the apparently more stable hydrochloride monohydrate
pKa [3]: 6.0
